# Counter-ions that a name gives are not always drawn.
row,Compound,melting point [°C]
1,"N#Cc1cccc(Nc2nc3ccccc3[nH]2)c1 [Example 23, N-(Benzoimidazol-2-yl)-3-cyanoaniline]",272 to 274
2,"Fc1ccc(Nc2nc3ccccc3[nH]2)cc1Cl (as salt: hydrochloride) [Example 14, N-(Benzimidazol-2-yl)-3-chloro-4-fluoroaniline]",306 to 307
3,"FC(F)(F)c1cc(Nc2nc3ccccc3[nH]2)ccc1Cl (as salt: hydrochloride) [Example 2, N-(Benzimidazol-2-yl)-4-chloro-3-(trifluoromethyl)aniline]",255 to 260
4,"c1ccc(-c2ccccc2Nc2nc3ccccc3[nH]2)cc1 [Example 28, N-(Benzoimidazol-2-yl)-2-phenylaniline]",152 to 154
5,"Fc1ccc(Nc2nc3ccccc3[nH]2)c(F)c1F [Example 21, N-(Benzimidazol-2-yl)-2,3,4-trifluoroaniline]",182 to 183
6,"Cc1c(Nc2nc3ccccc3[nH]2)cccc1C(F)(F)F [Example 19, N-(Benzimidazol-2-yl)-2-methyl-3-(trifluoromethyl)aniline]",204 to 206
7,"FC(F)(F)c1cc(Nc2nc3ccccc3[nH]2)cc(C(F)(F)F)c1 (as salt: hydrochloride) [Example 13, N-(Benzimidazol-2-yl)-3,5-bis(trifluoromethyl)aniline]",245 to 246
8,"Fc1cc(Nc2nc3ccccc3[nH]2)cc(C(F)(F)F)c1 (as salt: hydrochloride) [Example 18, N-(Benzimidazol-2-yl)-3-fluoro-5-(trifluoromethyl)aniline]",263 to 265
9,"Cc1ccc(Nc2nc3ccccc3[nH]2)cc1C(F)(F)F (as salt: hydrochloride) [Example 17, N-(Benzimidazol-2-yl)-4-methyl-3-(trifluoromethyl)aniline]",> 265
10,"Clc1cc(Cl)cc(Nc2nc3ccccc3[nH]2)c1 (as salt: hydrochloride) [Example 15, N-(Benzimidazol-2-yl)-3,5-dichloroaniline]",317 to 318
11,"CC(C)c1ccc(Nc2nc3ccccc3[nH]2)cc1 [Example 25, N-(Benzoimidazol-2-yl)-4-isopropylaniline]",179 to 180
12,"COc1cc(Nc2nc3ccccc3[nH]2)cc(C(F)(F)F)c1 (as salt: hydrochloride) [Example 24, N-(Benzoimidazol-2-yl)-3-methoxy-5-(trifluoromethyl)aniline]",212 to 213
13,"Fc1c(Nc2nc3ccccc3[nH]2)cccc1C(F)(F)F [Example 20, N-(Benzimidazol-2-yl)-2-fluoro-3-(trifluoromethyl)aniline]",91 to 92
14,"FC(F)(F)Oc1ccc(Nc2nc3ccccc3[nH]2)cc1 (as salt: hydrochloride) [Example 6, N-(Benzimidazol-2-yl)-4-(trifluoromethoxy)aniline]",250 to 251
15,"Fc1ccc(Nc2nc3ccccc3[nH]2)cc1 (as salt: hydrochloride) [Example 7, N-(Benzimidazol-2-yl)-4-fluoroaniline]",215 to 216
16,"CN(c1ccc(Cl)c(Cl)c1)c1nc2ccccc2[nH]1 (as salt: hydrochloride) [Example 22, N-(Benzoimidazol-2-yl)-N-methyl-3,4-dichloroaniline]",> 275
17,"Fc1ccc(Nc2nc3ccccc3[nH]2)cc1C(F)(F)F (as salt: hydrochloride) [Example 11, N-(Benzimidazol-2-yl)-4-fluoro-3-(trifluoromethyl)aniline]",255 to 257
18,"Cc1cc(Nc2nc3ccccc3[nH]2)ccc1F (as salt: hydrochloride) [Example 12, N-(Benzimidazol-2-yl)-4-fluoro-3-methylaniline]",246 to 248
19,"Clc1ccc(Nc2nc3ccccc3[nH]2)cc1Cl (as salt: hydrochloride) [Example 3, N-(Benzimidazol-2-yl)-3,4-dichloroaniline]",> 270
20,"FC(F)(F)c1cccc(Nc2nc3ccccc3[nH]2)c1 [Example 10, N-(Benzimidazol-2-yl)-3-(trifluoromethyl)aniline]",160 to 162
21,"FC(F)(F)c1cc(Nc2nc3ccccc3[nH]2)ccc1Br (as salt: hydrochloride) [Example 16, N-(Benzimidazol-2-yl)-4-bromo-3-(trifluoromethyl)aniline]",262 to 264
22,"Fc1ccc(Nc2nc3ccccc3[nH]2)cc1F (as salt: hydrochloride) [Example 8, N-(Benzimidazol-2-yl)-3,4-difluoroaniline]",283 to 284
23,"Fc1cc(F)cc(Nc2nc3ccccc3[nH]2)c1 (as salt: hydrochloride) [Example 9, N-(Benzimidazol-2-yl)-3,5-difluoroaniline]",292 to 293
24,"Clc1ccc(Nc2nc3ccccc3[nH]2)cc1 (as salt: hydrochloride) [Example 1, N-(Benzimidazol-2-yl)-4-chloroaniline]",238 to 240
25,"FC(F)(F)c1ccc(Nc2nc3ccccc3[nH]2)cc1 [Example 4, N-(Benzimidazol-2-yl)-4-(trifluoromethyl)aniline]",199 to 200
26,"Clc1cccc(Nc2nc3ccccc3[nH]2)c1 (as salt: hydrochloride) [Example 5, N-(Benzimidazol-2-yl)-3-chloroaniline]",252 to 257

# From US7960561B2, “2-(phenylamino) benzimidazole derivatives and their use as modulators of small-conductance calcium-activated potassium channels” (Neurosearch A/S, priority 2005, dated 2011)
